In ChEMBL document CHEMBL6115026, “Synthesis and Biological Evaluation of Peripheral 5HT2B Antagonists for Liver Fibrosis” (J Med Chem, 2025):
Values belong to the compound of their own block, whether it stands above or below them. Calls of active or inactive are those of the source. No cut-off for these calls is given here.

Key:
[1] = Clearance in male ICR mouse at 2 mg/kg, iv measured after 24 hrs by LC-MS/MS analysis; type: ADME, organism-based; details: in vivo
[2] = Cytotoxicity against CHO-K1 cells assessed as reduction in cell viability incubated for 24 hrs by EZ-CYTOX cell viability assay; type: toxicity, cell-based, Cricetulus griseus; details: Chinese hamster
CYP1A2 = target: T1, CYP1A2 (Homo sapiens, UniProt P05177); experiment: Inhibition of CYP1A2 (unknown origin) at 1 uM preincubated for 10 mins followed by NADPH addition and measured after 20 mins by luminescence based microplate reader analysis relative to control; type: ADME; details: time 30 min
T1 sequence (P05177 whole entry): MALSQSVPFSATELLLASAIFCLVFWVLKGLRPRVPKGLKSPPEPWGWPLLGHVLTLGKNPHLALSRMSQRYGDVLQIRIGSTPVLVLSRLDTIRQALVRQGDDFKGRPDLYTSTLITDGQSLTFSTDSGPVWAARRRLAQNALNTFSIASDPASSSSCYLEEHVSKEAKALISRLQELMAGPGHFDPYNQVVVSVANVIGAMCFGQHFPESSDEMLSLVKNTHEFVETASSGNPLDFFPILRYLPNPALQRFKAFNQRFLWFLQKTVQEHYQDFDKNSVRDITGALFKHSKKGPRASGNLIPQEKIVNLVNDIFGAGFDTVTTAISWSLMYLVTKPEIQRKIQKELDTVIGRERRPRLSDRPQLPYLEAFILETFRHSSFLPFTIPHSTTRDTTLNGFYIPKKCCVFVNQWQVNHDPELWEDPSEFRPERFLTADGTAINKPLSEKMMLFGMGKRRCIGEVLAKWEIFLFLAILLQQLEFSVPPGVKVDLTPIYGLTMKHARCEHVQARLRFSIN

[3] = Volume of distribution at steady state in male ICR mouse at 2 mg/kg, iv measured after 24 hrs by LC-MS/MS analysis; type: ADME, organism-based; details: in vivo, read-out: Vdss
[4] = Cytotoxicity against HFL1 cells assessed as reduction in cell viability incubated for 24 hrs by EZ-CYTOX cell viability assay; type: toxicity, cell-based; details: human
[5] = Half-life in male ICR mouse at 2 mg/kg, iv measured after 24 hrs by LC-MS/MS analysis; type: ADME, organism-based; details: in vivo
Mus musculus [6] = experiment: Antifibrotic activity in CCl4-induced male C57BL/6J mouse model of liver fibrosis assessed as downregulation of alpha-SMA gene expression at 10 to 30 mg/kg, ip co-administered daily with CCl4 for 4 weeks by RT-PCR analysis; type: functional, organism-based; details: dose 10-30 mg/kg
Mus musculus [7] = experiment: Antifibrotic activity in CCl4-induced male C57BL/6J mouse model of liver fibrosis assessed as reduction in plasma ALT level at 10 to 30 mg/kg, ip co-administered daily with CCl4 for 4 weeks by enzymatic colorimetric analysis; type: functional, organism-based; details: dose 10-30 mg/kg
Mus musculus [8] = experiment: Antifibrotic activity in CCl4-induced male C57BL/6J mouse model of liver fibrosis assessed as reduction in plasma total bilirubin level at 10 to 30 mg/kg, ip co-administered daily with CCl4 for 4 weeks by enzymatic colorimetric analysis; type: functional, organism-based; details: dose 10-30 mg/kg
[9] = AUC (0 to t) in male ICR mouse at 2 mg/kg, iv measured after 24 hrs by LC-MS/MS analysis; type: ADME, organism-based; details: in vivo
[10] = Cytotoxicity against mouse NIH3T3 cells assessed as reduction in cell viability incubated for 24 hrs by EZ-CYTOX cell viability assay; type: toxicity, cell-based
Mus musculus [11] = experiment: Antifibrotic activity in CCl4-induced male C57BL/6J mouse model of liver fibrosis assessed as downregulation of Col1a1 gene expression at 10 to 30 mg/kg, ip co-administered daily with CCl4 for 4 weeks by RT-PCR analysis; type: functional, organism-based; details: dose 10-30 mg/kg
Mus musculus [12] = experiment: Antifibrotic activity in CCl4-induced male C57BL/6J mouse model of liver fibrosis assessed as reduction in fibrotic deposition in liver at 10 to 30 mg/kg, ip co-administered daily with CCl4 for 4 weeks by sirius red staining based analysis; type: functional, organism-based; details: dose 10-30 mg/kg
Mus musculus [13] = experiment: Antifibrotic activity in CCl4-induced male C57BL/6J mouse model of liver fibrosis assessed as reduction in hydroxyproline level in liver at 10 to 30 mg/kg, ip co-administered daily with CCl4 for 4 weeks; type: functional, organism-based; details: dose 10-30 mg/kg
CYP2C9 = CYP2C9 (Homo sapiens, UniProt P11712); experiment: Inhibition of CYP2C9 (unknown origin) at 1 uM preincubated for 10 mins followed by NADPH addition and measured after 20 mins by luminescence based microplate reader analysis relative to control; type: ADME; details: time 30 min
Chain of CYP2C9 (P11712 whole entry): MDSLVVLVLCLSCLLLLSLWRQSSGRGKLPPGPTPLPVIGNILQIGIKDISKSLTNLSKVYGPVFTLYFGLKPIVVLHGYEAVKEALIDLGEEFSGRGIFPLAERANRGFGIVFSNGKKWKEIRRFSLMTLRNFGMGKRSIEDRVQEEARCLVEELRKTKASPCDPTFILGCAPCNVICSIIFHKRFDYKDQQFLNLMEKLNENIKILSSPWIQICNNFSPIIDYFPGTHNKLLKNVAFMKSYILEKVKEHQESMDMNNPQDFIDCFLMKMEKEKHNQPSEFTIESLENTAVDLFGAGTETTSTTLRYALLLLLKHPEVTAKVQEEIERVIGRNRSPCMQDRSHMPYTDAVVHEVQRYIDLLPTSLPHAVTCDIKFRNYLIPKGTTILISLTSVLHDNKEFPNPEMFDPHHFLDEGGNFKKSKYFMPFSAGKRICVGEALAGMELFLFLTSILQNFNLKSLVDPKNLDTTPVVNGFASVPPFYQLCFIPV

[14] = Cytotoxicity against African green monkey Vero cells assessed as reduction in cell viability incubated for 24 hrs by EZ-CYTOX cell viability assay; type: toxicity, cell-based, Chlorocebus sabaeus
[15] = Metabolic stability in human liver microsomes assessed as parent compound remaining measured after 30 mins in presence of NADPH by LC-MS/MS analysis; type: ADME, Microsome; details: read-out: Stability
CYP2D6 = CYP2D6 (Homo sapiens, UniProt P10635); experiment: Inhibition of CYP2D6 (unknown origin) at 1 uM preincubated for 10 mins followed by NADPH addition and measured after 20 mins by luminescence based microplate reader analysis relative to control; type: ADME; details: time 30 min
Chain of CYP2D6 (P10635 whole entry): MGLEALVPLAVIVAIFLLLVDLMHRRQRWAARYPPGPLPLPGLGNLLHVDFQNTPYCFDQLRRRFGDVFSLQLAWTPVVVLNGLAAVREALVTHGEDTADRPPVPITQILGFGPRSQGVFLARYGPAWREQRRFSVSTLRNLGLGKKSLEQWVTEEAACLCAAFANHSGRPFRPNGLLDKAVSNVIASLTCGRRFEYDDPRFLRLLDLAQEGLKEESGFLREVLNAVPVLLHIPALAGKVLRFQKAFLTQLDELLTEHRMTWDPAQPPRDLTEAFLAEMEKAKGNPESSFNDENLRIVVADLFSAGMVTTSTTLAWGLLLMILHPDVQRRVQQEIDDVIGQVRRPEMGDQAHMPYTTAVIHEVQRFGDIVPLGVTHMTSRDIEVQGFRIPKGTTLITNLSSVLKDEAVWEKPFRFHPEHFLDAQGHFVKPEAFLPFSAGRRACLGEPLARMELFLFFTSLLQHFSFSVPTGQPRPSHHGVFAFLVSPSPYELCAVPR

[16] = Metabolic stability in rat liver microsomes assessed as parent compound remaining measured after 30 mins in presence of NADPH by LC-MS/MS analysis; type: ADME, Microsome; details: read-out: Stability
[17] = Drug concentration in male mouse plasma at 5 mg/kg, ip measured after 0.5 hrs by LC-MS/MS analysis; type: ADME, organism-based
Mus musculus [18] = experiment: Antifibrotic activity in CCl4-induced male C57BL/6J mouse model of liver fibrosis assessed as reduction in plasma AST level at 10 to 30 mg/kg, ip co-administered daily with CCl4 for 4 weeks by enzymatic colorimetric analysis; type: functional, organism-based; details: dose 10-30 mg/kg
[19] = target: T2, 5-hydroxytryptamine receptor 2B (Homo sapiens, UniProt P41595); experiment: Antagonist activity at 5HT2B (unknown origin) expressed in FRT cells co-expressing ANO1 and YFP assessed as inhibition of 5HT-induced increase in iodide influx at 1 uM preincubated with compound for 10 mins followed by 5-HT addition and measured after 8 sec by YFP fluorescence quenching analysis relative to control; type: cell-based; details: time 608.0 sec
T2 sequence (P41595 whole entry): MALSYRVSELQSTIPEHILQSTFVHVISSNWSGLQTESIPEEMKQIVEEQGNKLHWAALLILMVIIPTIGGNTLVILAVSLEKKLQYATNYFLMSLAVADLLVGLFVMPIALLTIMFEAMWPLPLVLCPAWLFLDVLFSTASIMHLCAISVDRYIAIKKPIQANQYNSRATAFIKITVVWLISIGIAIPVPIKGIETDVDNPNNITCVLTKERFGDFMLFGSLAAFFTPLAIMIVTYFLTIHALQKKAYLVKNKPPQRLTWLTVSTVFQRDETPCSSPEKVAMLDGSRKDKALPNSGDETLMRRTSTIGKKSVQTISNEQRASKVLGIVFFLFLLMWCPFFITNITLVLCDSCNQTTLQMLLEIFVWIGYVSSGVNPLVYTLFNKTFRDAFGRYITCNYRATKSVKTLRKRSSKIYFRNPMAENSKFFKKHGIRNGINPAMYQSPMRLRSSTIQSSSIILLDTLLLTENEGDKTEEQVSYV

CYP2C19 = CYP2C19 (Homo sapiens, UniProt P33261); experiment: Inhibition of CYP2C19 (unknown origin) at 1 uM preincubated for 10 mins followed by NADPH addition and measured after 20 mins by luminescence based microplate reader analysis relative to control; type: ADME; details: time 30 min
Chain of CYP2C19 (P33261 whole entry): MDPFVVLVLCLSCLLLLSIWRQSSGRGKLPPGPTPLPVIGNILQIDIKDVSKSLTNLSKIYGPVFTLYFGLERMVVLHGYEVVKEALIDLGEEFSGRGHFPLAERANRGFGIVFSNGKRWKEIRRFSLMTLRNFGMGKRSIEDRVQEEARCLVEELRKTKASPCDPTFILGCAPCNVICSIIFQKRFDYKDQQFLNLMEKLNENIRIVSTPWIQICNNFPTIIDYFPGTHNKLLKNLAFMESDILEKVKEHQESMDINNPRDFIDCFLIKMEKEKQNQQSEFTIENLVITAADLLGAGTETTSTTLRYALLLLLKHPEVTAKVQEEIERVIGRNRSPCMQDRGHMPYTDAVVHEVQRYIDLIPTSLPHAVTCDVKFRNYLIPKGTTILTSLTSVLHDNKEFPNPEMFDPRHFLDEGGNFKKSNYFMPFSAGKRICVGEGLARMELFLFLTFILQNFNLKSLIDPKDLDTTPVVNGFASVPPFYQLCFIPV

Mus musculus [20] = experiment: Antifibrotic activity in CCl4-induced male C57BL/6J mouse model of liver fibrosis assessed as reduction in fibrotic deposition in liver at 10 to 30 mg/kg, ip co-administered daily with CCl4 for 4 weeks by masson's trichrome staining based analysis; type: functional, organism-based; details: dose 10-30 mg/kg
Mus musculus [21] = experiment: Antifibrotic activity in CCl4-induced male C57BL/6J mouse model of liver fibrosis assessed as downregulation of Timp1 gene expression at 10 to 30 mg/kg, ip co-administered daily with CCl4 for 4 weeks by RT-PCR analysis; type: functional, organism-based; details: dose 10-30 mg/kg
[22] = Toxicity in CCl4-induced male C57BL/6J mouse model of liver fibrosis assessed as effect on liver gross morphology at 10 to 30 mg/kg, ip co-administered daily with CCl4 for 4 weeks; type: organism-based; details: in vivo, 672 h, dose 10-30 mg/kg
Mus musculus [23] = experiment: Antifibrotic activity in CCl4-induced male C57BL/6J mouse model of liver fibrosis assessed as reduction in sirius red positive area in liver at 10 to 30 mg/kg, ip co-administered daily with CCl4 for 4 weeks by sirius red staining based analysis; type: functional, organism-based; details: dose 10-30 mg/kg
CYP3A4 = CYP3A4 (Homo sapiens, UniProt P08684); experiment: Inhibition of CYP3A4 (unknown origin) at 1 uM preincubated for 10 mins followed by NADPH addition and measured after 20 mins by luminescence based microplate reader analysis relative to control; type: ADME; details: time 30 min
Chain of CYP3A4 (P08684 whole entry): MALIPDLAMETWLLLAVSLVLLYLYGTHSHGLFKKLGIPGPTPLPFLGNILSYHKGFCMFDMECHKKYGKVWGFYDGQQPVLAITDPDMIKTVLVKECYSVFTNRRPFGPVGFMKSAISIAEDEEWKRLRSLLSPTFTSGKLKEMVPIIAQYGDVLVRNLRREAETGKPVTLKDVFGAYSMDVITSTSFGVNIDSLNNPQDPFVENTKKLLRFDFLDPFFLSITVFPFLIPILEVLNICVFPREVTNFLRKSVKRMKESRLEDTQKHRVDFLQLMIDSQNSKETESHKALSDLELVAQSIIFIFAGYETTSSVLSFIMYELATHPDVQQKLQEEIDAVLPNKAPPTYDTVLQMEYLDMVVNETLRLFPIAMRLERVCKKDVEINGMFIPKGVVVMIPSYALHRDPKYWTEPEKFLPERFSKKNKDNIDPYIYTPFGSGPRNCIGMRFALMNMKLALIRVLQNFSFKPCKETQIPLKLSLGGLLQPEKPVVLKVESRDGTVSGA

Mus musculus [24] = experiment: Antifibrotic activity in CCl4-induced male C57BL/6J mouse model of liver fibrosis assessed as reduction in fibrotic deposition in liver at 10 to 30 mg/kg, ip co-administered daily with CCl4 for 4 weeks by H and E staining based analysis; type: functional, organism-based; details: dose 10-30 mg/kg
hERG (KCNH2) = hERG (KCNH2) (Homo sapiens, UniProt Q12809); experiment: Inhibition of human ERG at 10 uM incubated for 2 hrs by fluorescence polarization assay relative to control; type: toxicity
Chain of hERG (KCNH2) (Q12809 whole entry): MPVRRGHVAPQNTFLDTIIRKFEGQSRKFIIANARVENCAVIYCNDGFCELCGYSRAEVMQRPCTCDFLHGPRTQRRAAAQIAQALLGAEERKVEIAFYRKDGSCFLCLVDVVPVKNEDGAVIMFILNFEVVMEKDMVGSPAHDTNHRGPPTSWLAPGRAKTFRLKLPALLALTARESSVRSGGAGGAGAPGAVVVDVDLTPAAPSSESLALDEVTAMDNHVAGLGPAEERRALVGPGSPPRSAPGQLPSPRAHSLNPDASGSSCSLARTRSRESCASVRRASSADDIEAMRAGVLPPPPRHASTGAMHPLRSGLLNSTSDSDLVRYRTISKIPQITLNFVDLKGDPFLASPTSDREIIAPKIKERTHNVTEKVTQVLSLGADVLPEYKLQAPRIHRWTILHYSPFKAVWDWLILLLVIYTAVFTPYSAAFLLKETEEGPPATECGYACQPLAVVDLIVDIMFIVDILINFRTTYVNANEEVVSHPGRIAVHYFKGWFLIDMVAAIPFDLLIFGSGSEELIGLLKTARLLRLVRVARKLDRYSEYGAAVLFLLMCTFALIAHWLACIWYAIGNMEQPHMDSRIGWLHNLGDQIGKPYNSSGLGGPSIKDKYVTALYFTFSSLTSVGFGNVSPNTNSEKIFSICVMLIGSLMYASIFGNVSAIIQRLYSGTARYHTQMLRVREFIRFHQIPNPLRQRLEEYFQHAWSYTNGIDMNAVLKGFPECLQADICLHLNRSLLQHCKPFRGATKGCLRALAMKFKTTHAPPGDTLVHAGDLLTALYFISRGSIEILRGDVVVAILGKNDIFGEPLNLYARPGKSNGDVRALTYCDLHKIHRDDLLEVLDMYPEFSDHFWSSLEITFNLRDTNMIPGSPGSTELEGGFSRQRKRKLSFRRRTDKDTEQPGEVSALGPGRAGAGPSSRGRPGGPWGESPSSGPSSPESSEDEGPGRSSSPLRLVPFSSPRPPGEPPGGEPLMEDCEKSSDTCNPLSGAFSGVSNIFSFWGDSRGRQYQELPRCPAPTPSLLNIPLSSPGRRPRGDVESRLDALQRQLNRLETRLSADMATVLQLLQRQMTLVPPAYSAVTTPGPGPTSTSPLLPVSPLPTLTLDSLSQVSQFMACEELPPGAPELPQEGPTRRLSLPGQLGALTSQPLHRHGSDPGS

Mus musculus [25] = experiment: Antifibrotic activity in CCl4-induced male C57BL/6J mouse model of liver fibrosis assessed as reduction in fibrosis be measuring fibrotic stage at 10 to 30 mg/kg, ip co-administered daily with CCl4 for 4 weeks; type: functional, organism-based; details: dose 10-30 mg/kg
[26] = target: 5-hydroxytryptamine receptor 2A (Homo sapiens) (UniProt P28223); experiment: Inhibition of 5-HT2A (unknown origin) at 1 uM relative to control
Chain of 5-hydroxytryptamine receptor 2A (Homo sapiens) (P28223 whole entry): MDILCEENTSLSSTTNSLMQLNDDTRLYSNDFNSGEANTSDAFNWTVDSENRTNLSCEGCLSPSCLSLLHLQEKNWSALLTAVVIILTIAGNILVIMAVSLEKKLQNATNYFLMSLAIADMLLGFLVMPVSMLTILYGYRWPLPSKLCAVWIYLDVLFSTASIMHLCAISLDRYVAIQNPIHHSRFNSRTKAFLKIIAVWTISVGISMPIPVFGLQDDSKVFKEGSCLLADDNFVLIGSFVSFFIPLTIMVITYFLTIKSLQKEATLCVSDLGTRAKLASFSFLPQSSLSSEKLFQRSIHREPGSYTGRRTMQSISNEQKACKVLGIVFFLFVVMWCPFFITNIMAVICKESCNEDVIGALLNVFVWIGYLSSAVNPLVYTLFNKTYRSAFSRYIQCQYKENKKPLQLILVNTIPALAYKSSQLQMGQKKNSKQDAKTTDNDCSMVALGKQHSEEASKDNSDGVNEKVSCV

[27] = target: T2, 5-hydroxytryptamine receptor 2B; experiment: Antagonist activity at 5HT2B (unknown origin) expressed in FRT cells co-expressing ANO1 and YFP assessed as inhibition of 5HT-induced increase in iodide influx preincubated with compound for 10 mins followed by 5-HT addition and measured after 8 sec by YFP fluorescence quenching analysis; type: cell-based
Mus musculus [28] = experiment: Antifibrotic activity in CCl4-induced male C57BL/6J mouse model of liver fibrosis assessed as downregulation of Col3a1 gene expression at 10 to 30 mg/kg, ip co-administered daily with CCl4 for 4 weeks by RT-PCR analysis; type: functional, organism-based; details: dose 10-30 mg/kg
[29] = Metabolic stability in mouse liver microsomes assessed as parent compound remaining measured after 30 mins in presence of NADPH by LC-MS/MS analysis; type: ADME, Microsome; details: read-out: Stability
[30] = Cytotoxicity against mouse L929 cells assessed as reduction in cell viability incubated for 24 hrs by EZ-CYTOX cell viability assay; type: toxicity, cell-based
[31] = Drug concentration in male mouse brain at 5 mg/kg, ip measured after 0.5 hrs by LC-MS/MS analysis; type: ADME, organism-based; details: read-out: Ct
[32] = target: T2, 5-hydroxytryptamine receptor 2B; experiment: Binding affinity to 5-HT2B (unknown origin) assessed as inhibition constant by receptor binding assay
[33] = target: T2, 5-hydroxytryptamine receptor 2B; experiment: Binding affinity to 5-HT2B (unknown origin)

SMILES: COc1ccc(S(=O)(=O)N[C@H]2CCN(C(=O)CC[C@H](N)C(=O)O)C2)cc1C(=O)Nc1ccccc1Cl.Cl
clearance [1]: 34.5 mL/min/kg
IC50 at 24 h [2]: > 100000 nM
inhibition at 20 min, 1 µM (CYP1A2): < 1%
Vd [3]: 1.93 L/kg
IC50 at 24 h [4]: > 100000 nM
half-life [5]: 1.02 h
Activity (Mus musculus [6]): Active
Activity (Mus musculus [7]): Active
Activity (Mus musculus [8]): Active
AUC(0-t) at 24 h [9]: 810 ng·h/mL
IC50 at 24 h [10]: > 100000 nM
Activity (Mus musculus [11]): Active
Activity (Mus musculus [12]): Active
Activity (Mus musculus [13]): Active
inhibition at 20 min, 1 µM (CYP2C9): < 1%
IC50 at 24 h [14]: > 100000 nM
remaining at 0.5 h [15]: 97.6%
inhibition at 20 min, 1 µM (CYP2D6): < 1%
remaining at 0.5 h [16]: 94.7%
concentration at 0.5 h [17]: 440 ng/mL
Activity (Mus musculus [18]): Active
inhibition ([19]; filed as antagonist): 102%
inhibition at 20 min, 1 µM (CYP2C19): 17.6%
Activity (Mus musculus [20]): Active
Activity (Mus musculus [21]): Active
Activity [22]: Non-toxic
Activity (Mus musculus [23]): Active
inhibition at 20 min, 1 µM (CYP3A4): 33.8%
Activity (Mus musculus [24]): Active
inhibition at 2 h, 10 µM (hERG (KCNH2)): 18.6%
Activity (Mus musculus [25]): Active
inhibition [26]: -9.88%
IC50 [27]: 1.09 nM
Activity (Mus musculus [28]): Active
remaining at 0.5 h [29]: 91.6%
IC50 at 24 h [30]: > 100000 nM
concentration at 0.5 h [31]: < 31.3 ng/g

SMILES: NCC(=O)NCCN1CCN(CCCN2c3ccccc3Sc3ccc(C(F)(F)F)cc32)CC1
Ki [32]: 5.2 nM

SMILES: COc1ccc(S(=O)(=O)N[C@H]2CCOC2)cc1C(=O)Nc1ccccc1N1CCN(C(=O)OC(C)(C)C)CC1
inhibition [19]: 1.64%

SMILES: COc1ccc(S(=O)(=O)N[C@H]2CCOC2)cc1C(=O)Nc1ccccc1N
inhibition [19]: 32.8%

Continued, values first:

inhibition ([19]; filed as antagonist): 100%
SMILES: COc1ccc(S(=O)(=O)N[C@@H]2CCN(C(=O)C[C@H](N)C(=O)O)C2)cc1C(=O)Nc1ccccc1Cl

inhibition ([19]; filed as antagonist): 99%
SMILES: COc1ccc(S(=O)(=O)N[C@@H]2CCN(C(=O)OC(C)(C)C)C2)cc1C(=O)Nc1ccccc1Cl

inhibition ([19]; filed as antagonist): 96.3%
SMILES: COc1ccc(S(=O)(=O)NC2CCNCC2)cc1C(=O)Nc1ccccc1Cl

inhibition ([19]; filed as antagonist): 94.3%
IC50 [27]: 80.7 nM
SMILES: COc1ccc(S(=O)(=O)N[C@H]2CCN(C(=O)[C@@H](N)CC(=O)O)C2)cc1C(=O)Nc1ccccc1Cl

IC50 [33]: 2.4 nM
SMILES: O=C(c1ccc(-c2ccccc2)cc1)N1CCC(c2cc3ccccc3[nH]2)CC1
